Values after ≈ are worked out from the molar mass of the structure shown.
Columns and labels:
[1] = Solid solubility test (2 h and 24 h); format: physicochemical; conditions: for Solubility measured at 2 h: 37° C., based on free base; for XRPD measured at 2 h: state of sample / solid fraction
[2] = Chemical and physical stability of the salts at the end of the preparation; format: physicochemical
From the text: It is crucial for drug development whether the salts obtained as above have chemical and physical stability at the end of the preparation. The chemical and physical stability of the salts at the end of the preparation includes: […]

[3] = Solid storage stability test; format: physicochemical; conditions: for chemical and physical stability after storage (summary): solid/25° C./60% RH/open/1 week and/or solid/60° C./closed container/1 week
[4] = test system: EGFR activating mutation (such as exon 19 deletion activating mutation, L858R activating mutation, T790M drug resistance mutation and exon 20 insertion …); conditions: disclosed in CN105461695B; cited from earlier work
[5] = FaSSIF-V1 (pH 6.5) (Test ES4, partly printed ES1)
[6] = Test ES1: 0.1N HCl solution (pH 1.0)
[7] = Test ES2: 50 mM phosphate buffer (pH 4.5)
[8] = listed as 1 eq. hydrobromide salt
[9] = listed as crystalline 1 eq. hydrobromide salt

## C=CC(=O)Nc1cc(Nc2ncnc(-c3cn(C)c4ccccc34)n2)c(OC)cc1N(C)CCN(C)C [Example 10]
[1]; [5]
  pH measured at 2 h: (6.4)
  Solubility measured at 2 h: 700 µg/mL (≈ 1.4 mM)
[1]; [6]
  pH measured at 2 h: (0.8)
  Solubility measured at 2 h: >2000 µg/mL
  XRPD measured at 2 h: clear solution
[1]; [7]
  pH measured at 2 h: (4.4)
  Solubility measured at 2 h: >2000 µg/mL
  XRPD measured at 2 h: clear solution
[1]; Test ES3: FeSSIF-V1 (pH 5.0)
  pH measured at 2 h: (4.8)
  Solubility measured at 2 h: >2000 µg/mL
  XRPD measured at 2 h: clear solution
[1]; Test ES5: SGF (pH 2.0)
  pH measured at 2 h: (1.9)
  Solubility measured at 2 h: >2000 µg/mL
  XRPD measured at 2 h: clear solution
[2]; [8]
  chemical and physical stability at the end of the preparation: chemically and physically stable
[2]; [9]
  chemical and physical stability at the end of the preparation: chemically and physically stable
[3]; Test BS1: solid/25° C./60% RH/open/1 week
  Purity: 99.9%
[3]; original solid before storage
  Original morphology: crystalline
  Original purity: 99.9%
[3]; [8]
  chemical and physical stability after storage (summary): chemically and physically stable
[3]; [9]
  chemical and physical stability after storage (summary): chemically and physically stable
[3]; solid/25° C./60% RH/open/1 week, listed as crystalline 1 eq. hydrobromide salt
  physical and chemical stability under storage (in words): good physical and chemical stability
[3]; solid/60° C./closed container/1 week (Test BS1)
  Purity: 99.9%
[3]; solid/60° C./closed container/1 week, listed as crystalline 1 eq. hydrobromide salt
  physical and chemical stability under storage (in words): good physical and chemical stability

## C=CC(=O)Nc1cc(Nc2ncnc(-c3cn(C)c4ccccc34)n2)c(OC)cc1N(C)CCN(C)C [compound of formula (I)]
[4]
  inhibitory activity against EGFR activating mutation compared with wild-type EGFR (WT EGFR): significantly higher
